# Measurements taken from paper PMC7857637, “The three NADH dehydrogenases of Pseudomonas aeruginosa: Their roles in energy metabolism and links to virulence” (PLoS ONE, 2021).
# Target: T1, NQR complex (pHERD28C-NQR) (Pseudomonas aeruginosa, UniProt Q9HZK7+Q9HZK8)
# T1 construct: gene nqrB; complete nqr operon on pHERD28C plasmid, C-terminal His tag on NqrF, expressed in P. aeruginosa, partially purified on Ni-NTA; with Na(+)-translocating NADH-quinone reductase subunit A; Na(+)-translocating NADH-quinone reductase subunit D; Na(+)-translocating NADH-quinone reductase subunit E; Na(+)-translocating NADH-quinone reductase subunit F
# T1 sequence (Q9HZK7 whole entry): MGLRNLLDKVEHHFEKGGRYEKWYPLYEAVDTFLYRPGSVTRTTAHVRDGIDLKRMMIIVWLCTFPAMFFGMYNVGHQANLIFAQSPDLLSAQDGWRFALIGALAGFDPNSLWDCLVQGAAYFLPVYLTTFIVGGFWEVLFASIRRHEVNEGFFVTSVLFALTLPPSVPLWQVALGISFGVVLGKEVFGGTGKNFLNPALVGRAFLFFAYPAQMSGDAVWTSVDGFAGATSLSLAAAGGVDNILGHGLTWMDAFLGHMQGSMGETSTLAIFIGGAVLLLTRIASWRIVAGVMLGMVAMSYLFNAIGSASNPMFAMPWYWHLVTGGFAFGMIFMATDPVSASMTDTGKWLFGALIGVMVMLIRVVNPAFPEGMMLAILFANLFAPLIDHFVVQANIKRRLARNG
# T1 sequence (Q9HZK8 whole entry): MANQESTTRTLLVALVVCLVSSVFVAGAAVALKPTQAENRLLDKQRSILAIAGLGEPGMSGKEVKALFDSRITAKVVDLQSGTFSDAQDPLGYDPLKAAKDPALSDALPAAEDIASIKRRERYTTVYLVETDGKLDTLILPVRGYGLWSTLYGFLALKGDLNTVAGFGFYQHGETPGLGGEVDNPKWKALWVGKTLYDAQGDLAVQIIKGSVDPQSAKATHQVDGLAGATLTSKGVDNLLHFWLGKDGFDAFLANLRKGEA
# T1 sequence (Q9HZL1 whole entry partner): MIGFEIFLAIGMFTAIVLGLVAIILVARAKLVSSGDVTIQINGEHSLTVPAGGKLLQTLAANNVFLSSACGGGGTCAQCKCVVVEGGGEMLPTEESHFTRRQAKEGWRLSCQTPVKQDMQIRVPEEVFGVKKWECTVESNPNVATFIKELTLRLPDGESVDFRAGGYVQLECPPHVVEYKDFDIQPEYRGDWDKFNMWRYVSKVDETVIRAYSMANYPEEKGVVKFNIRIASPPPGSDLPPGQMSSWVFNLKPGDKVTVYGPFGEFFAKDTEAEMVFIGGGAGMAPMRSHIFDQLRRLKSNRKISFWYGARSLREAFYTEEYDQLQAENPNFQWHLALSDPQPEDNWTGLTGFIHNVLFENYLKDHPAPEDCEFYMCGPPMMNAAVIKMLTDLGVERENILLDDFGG
# T1 sequence (Q9HZK6 whole entry partner): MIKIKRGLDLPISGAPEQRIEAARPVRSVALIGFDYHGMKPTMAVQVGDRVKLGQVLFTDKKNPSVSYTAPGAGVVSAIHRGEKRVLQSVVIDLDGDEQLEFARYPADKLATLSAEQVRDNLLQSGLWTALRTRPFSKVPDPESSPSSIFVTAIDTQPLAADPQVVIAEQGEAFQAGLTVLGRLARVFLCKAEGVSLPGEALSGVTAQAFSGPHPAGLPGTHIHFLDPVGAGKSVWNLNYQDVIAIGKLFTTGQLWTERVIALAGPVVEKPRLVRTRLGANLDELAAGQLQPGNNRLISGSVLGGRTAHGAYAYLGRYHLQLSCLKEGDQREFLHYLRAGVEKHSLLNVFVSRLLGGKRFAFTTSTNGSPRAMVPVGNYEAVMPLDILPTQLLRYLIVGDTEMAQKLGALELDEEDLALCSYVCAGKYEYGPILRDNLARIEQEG
# T1 sequence (Q9HZK9 whole entry partner): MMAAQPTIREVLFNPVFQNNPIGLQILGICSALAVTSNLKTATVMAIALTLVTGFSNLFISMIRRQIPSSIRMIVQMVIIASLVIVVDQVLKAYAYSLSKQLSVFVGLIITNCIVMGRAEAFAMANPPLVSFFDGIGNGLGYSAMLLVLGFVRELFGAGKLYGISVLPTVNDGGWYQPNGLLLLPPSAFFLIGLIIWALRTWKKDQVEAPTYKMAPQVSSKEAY
# T1 sequence (Q9HZL0 whole entry partner): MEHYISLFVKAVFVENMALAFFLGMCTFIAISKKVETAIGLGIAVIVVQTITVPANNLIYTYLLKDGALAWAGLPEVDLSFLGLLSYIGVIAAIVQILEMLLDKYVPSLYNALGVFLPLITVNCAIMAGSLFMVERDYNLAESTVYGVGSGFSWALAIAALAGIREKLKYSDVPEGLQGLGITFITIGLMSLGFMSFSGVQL
# Assay: in-gel flavin fluorescence of the partially purified complex (SDS gel under UV)
# Format: binding
# Conditions: covalent (retained on SDS gel); bands of subunits NqrB and NqrC
smiles,measurement,value
Cc1cc2nc3c(=O)[nH]c(=O)nc-3n(C[C@H](O)[C@H](O)[C@H](O)COP(=O)(O)O)c2cc1C [FMN],in-gel flavin fluorescence of the partially purified complex (SDS gel under UV),two fluorescent bands characteristic of the FMN cofactors of the NqrB and NqrC subunits
